Experimental data published in PubChem BioAssay (NCI).
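Method: 48-hour compound exposure of cells in 96-well plates, five concentrations, linear interpolation of endpoints. At the GI50, growth is halved. TGI is the concentration that stops growth completely.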

Tests used:
Test in all cases: NCI tumour cell line growth inhibition, 48 h
[1] = test system: SW-620 colon
[2] = test system: MOLT-4 leukemia
[3] = test system: ACHN renal
[4] = test system: MALME-3M melanoma
[5] = test system: OVCAR-4 ovarian
[6] = test system: SF-268 CNS
[7] = test system: TK-10 renal
[8] = test system: NCI-H23 lung
[9] = test system: HT29 colon

| SMILES | GI50 [1] | TGI [1] | GI50 [2] | TGI [2] | GI50 [3] | TGI [3] | GI50 [4] | TGI [4] | GI50 [5] | TGI [5] | GI50 [6] | TGI [6] | GI50 [7] | TGI [7] | GI50 [8] | TGI [8] | GI50 [9] | TGI [9] |
| --- | --- | --- | --- | --- | --- | --- | --- | --- | --- | --- | --- | --- | --- | --- | --- | --- | --- | --- |
| COc1ccc(/C(=N/O)c2cc(OC)c(OC)c(OC)c2)c(OC)c1N | 4.42 µM | > 100 µM | 6.94 µM | > 100 µM | 17.8 µM | > 100 µM | 4.22 µM | > 100 µM | 8.18 µM | > 100 µM | 14.6 µM | > 100 µM | > 100 µM | > 100 µM | 7.06 µM | > 100 µM | 3.54 µM | > 100 µM |
| CCOP(=O)(CC(=O)C1=C(O)C(CCCCNC(=O)OC(C)(C)C)N(Cc2ccccc2)C1=O)OCC (stereo not given) | – | – | – | > 100 µM | – | > 100 µM | – | > 100 µM | – | > 100 µM | – | > 100 µM | – | > 100 µM | – | > 100 µM | – | > 100 µM |
| COc1cc2c(cc1OC)[C@@H]([C@H](O)c1ccccc1)NCC2 | – | > 100 µM | – | > 100 µM | – | > 100 µM | – | > 100 µM | – | > 100 µM | – | > 100 µM | – | > 100 µM | – | > 100 µM | – | > 100 µM |
| Clc1ccc(C2=NOC3C4CCC(C4)C23)cc1 (stereo not given) | – | > 100 µM | – | > 100 µM | – | > 100 µM | – | > 100 µM | – | > 100 µM | – | > 100 µM | – | > 100 µM | – | > 100 µM | – | > 100 µM |
| Cc1ccc(S(=O)(=O)SCc2ccccc2)cc1 | – | 14.7 µM | – | 6.22 µM | – | > 100 µM | – | 81.5 µM | – | 31.4 µM | – | > 85.7 µM | – | > 100 µM | – | 36.2 µM | – | 47.1 µM |
| CN1C(=O)C(=CN(C)c2ccccc2)C(=O)N(C)C1=O | – | > 100 µM | – | > 100 µM | – | > 100 µM | – | > 100 µM | – | > 100 µM | – | – | – | > 100 µM | – | – | – | – |
| COc1ccc2c(c1)CCN1C3=C(CCC3)C(=O)C[C@@H]21 | – | > 100 µM | – | > 100 µM | – | > 100 µM | – | > 100 µM | – | > 100 µM | – | > 100 µM | – | > 100 µM | – | > 100 µM | – | > 100 µM |
| O=C(Sc1sc(=S)sc1SC(=O)c1ccccc1)c1ccccc1 | – | > 100 µM | – | > 100 µM | – | > 100 µM | – | > 100 µM | – | > 100 µM | – | > 100 µM | – | > 100 µM | – | > 100 µM | – | > 100 µM |
| Cc1cc(NS(=O)(=O)c2ccc(Nc3c4ccccc4nc4c(C(=O)Nc5ccc(S(=O)(=O)N=C(N)N)cc5)ccc(Cl)c34)cc2)no1 | – | – | – | 67.3 µM | – | > 100 µM | – | > 100 µM | – | 85.6 µM | – | 63.2 µM | – | > 100 µM | – | 92.6 µM | – | > 100 µM |
| Cc1cc(NS(=O)(=O)c2ccc(NC(=O)COC(=O)c3cccc4c(=O)c5ccccc5[nH]c34)cc2)no1 | – | > 100 µM | – | > 100 µM | – | > 100 µM | – | > 100 µM | – | > 100 µM | – | > 100 µM | – | > 100 µM | – | > 100 µM | – | > 100 µM |
| Brc1ccc(C2SCc3nc4ccccc4n32)cc1 (stereo not given) | – | 29.2 µM | – | > 100 µM | – | 40.2 µM | – | 30.2 µM | – | 27.4 µM | – | 32.9 µM | – | 29.1 µM | – | 15.3 µM | – | 20.9 µM |
| CN(C)c1ccc(/C=N/NC(=O)c2cccc3ccccc23)c(Cl)c1 | 0.578 µM | > 100 µM | 2.31 µM | > 100 µM | 5.65 µM | > 100 µM | 1.29 µM | 69.2 µM | 11.6 µM | 74.2 µM | 9.1 µM | > 100 µM | 5 µM | 39.3 µM | 7.51 µM | > 100 µM | 0.503 µM | 15.8 µM |
| O=C(COc1ccc(-c2nc3cc(Cl)c(Cl)cc3[nH]2)cc1)N=Nc1c(O)[nH]c2ccccc12 | – | – | 3.57 µM | > 100 µM | 3.71 µM | > 100 µM | – | – | – | – | – | – | > 33.1 µM | > 58.5 µM | 3.03 µM | 15.1 µM | 1.14 µM | > 100 µM |
| O=C1CCC2(c3ccccc3)Nc3ccc(Cl)cc3N12 (stereo not given) | – | > 100 µM | – | > 100 µM | – | > 100 µM | – | > 100 µM | – | > 100 µM | – | > 100 µM | – | > 100 µM | – | > 100 µM | – | > 100 µM |
| O=C(NC(=O)c1cc2cc(Br)cc(Br)c2oc1=O)Oc1ccccc1 | – | > 100 µM | – | > 100 µM | – | 72 µM | – | > 100 µM | – | > 100 µM | – | > 100 µM | – | > 100 µM | – | > 100 µM | – | > 100 µM |
| Cc1ccc2c(CC(=O)O)cc(=O)oc2c1 | – | > 100 µM | – | > 100 µM | – | > 100 µM | – | > 100 µM | – | > 100 µM | – | > 100 µM | – | > 100 µM | – | > 100 µM | – | > 100 µM |
| CCN(CC)CCC(=O)/C=C/c1ccc(C)cc1 | – | 14.9 µM | – | 38.2 µM | – | 27.5 µM | – | 34 µM | – | 32.7 µM | – | 30.4 µM | – | 19.3 µM | – | 32.4 µM | – | 33 µM |
| COc1cc2ccc(CC(N)=O)cc2cc1OC | – | > 100 µM | – | > 100 µM | – | – | – | > 100 µM | – | > 100 µM | – | > 100 µM | – | > 100 µM | – | > 100 µM | – | > 100 µM |
